Here are results for two compounds from patent publication US11576933B2, “Compositions and methods for an improved antitumor immune response” (EFFECTOR THERAPEUTICS, INC., priority 2017, dated 2023).

The subject of experiment [1] is fibroblasts (Lonza #CC-2512). The experiment in a line: α-SMA protein level by western blot in fibroblasts co-treated with TGFβ (fibroblast-to-myofibroblast transformation). The experiment is classed as cell-based. The note with it: 24 hours co-incubation with 10 ng/ml TGFβ, inhibitor 0, 1.5, 4, 13 or 40 nM, FIG. 1. The protocol: (§1) Myofibroblasts are believed to be associated with tumor growth, vascularization, and metastasis (see, e.g., Webber et al., Cancer Res. 70:9621, 2010). The ability of Cmp1 or Cmp2 to inhibit the TGFβ-mediated fibroblast-to-myofibroblast transformation and components of the extracellular matrix was evaluated in fibroblasts.
(§2) Briefly, fibroblasts (Lonza #CC-2512; cell passage numbers 2 through 5 were used for all experiments) were seeded (Day 0) and cultured in Dulbecco's modified Eagle medium (DMEM) supplemented with 10% fetal bovine serum (FBS), penicillin, streptomycin and glutamax (Invitrogen) at 37° C. in a humidified incubator with 5% CO2 overnight. On Day 1, cells were washed with phosphate buffered saline (PBS), and then incubated for 48 hours in fresh serum-free DMEM supplemented with penicillin, streptomycin, and glutamax. […]
(§3) After a 24-hour incubation period, the effects of eIF4A inhibition on fibroblast transformation and production of extracellular matrix components were evaluated. Smooth muscle actin (α-SMA) protein levels were analyzed by western blot. Procollagen type 1 C-Peptide (PIPC) levels were analyzed by collecting culture media, centrifuging to pellet cellular debris, and quantifying using the (PIP) EIA kit (Clontech, Cat. No. MK101) according to the manufacturer's instructions.

Experiment [2] deals with fibroblasts (Lonza #CC-2512). Put plainly: Procollagen type 1 C-Peptide (PIPC) secretion from fibroblasts co-treated with TGFβ, (PIP) EIA kit. It counts as cell-based. The note with it: 24 hours co-incubation with 10 ng/ml TGFβ; inhibitor 0, 1.5, 4, 13 or 40 nM; FIGS. 2A and 2B. The procedure: as §1, §2, §3
Experiment [3] deals with KPC-3 (mouse pancreatic carcinoma) tumor. The experiment in a line: Tumor infiltrating lymphocytes (CD3+/CD8+ IHC) in allograft KPC-3 tumor model. It counts as in vivo. The note with it: parenterally, C57BL/6J mice, versus vehicle; for CD3+ T cells in the KPC-3 tumor samples: FIG. 4B. The protocol:
To evaluate the effect of an eIF4A inhibitor on tumor infiltrating lymphocytes, an allograft tumor model was used. Briefly, KPC-3 (mouse pancreatic carcinoma) cells grown in DMEM supplemented with 10% FBS were harvested during exponential growth and counted for tumor inoculation in immune competent C57BL/6J mice. Each mouse was inoculated subcutaneously with 0.1×10^6 KPC-3 tumor cells in the right flank region in 0.1 mL volume comprising a 1:1 ratio (volume to volume) of cells in growth media and Matrigel® matrix (BD Biosciences, San Jose Calif.). Tumors were grown to 100-200 mm^3 prior to study initiation. Before beginning treatment, all animals were weighed and tumor volumes measured using a caliper. Since the tumor volume can affect the effectiveness of any given treatment, mice were randomly assigned into vehicle and test article treatment groups after tumors had reached a similar size. Each study group contained 8 mice, with each group receiving either vehicle (D5W) or Cmp1 administered parenterally on two dosing schedules (0.33 mg/kg Q2D and 1 mg/kg Q1W for 17 days). Following treatment, tumor biopsies were collected for four representative animals from each treatment group, formalin-fixed, and paraffin-embedded. Tumor samples were sectioned and stained with anti-CD3 and anti-CD8 antibodies or isotype control. A hematoxylin nuclear counterstain was also applied. Image analysis and quantification were conducted using ImageDx™. Increased CD3^+ and CD8^+ T cell staining within the tumor sample for eIF4A inhibitor treatment relative to vehicle indicates an increase in infiltrating lymphocytes into the tumor.

For experiment [4], the system named is myofibroblasts. Put plainly: TGFβ secretion from pre-formed myofibroblasts, Human TGF-B1 ELISA kit. The experiment is classed as cell-based. The note with it: myofibroblasts pre-formed with 10 ng/ml TGFβ 24 hours, washed; inhibitor 0-100 nM for 48 hours; FIG. 3A. The procedure: (§4) Briefly, fibroblasts (Lonza #CC-2512; cell passage numbers 2 through 5 were used for all experiments) were seeded (Day 0) and cultured in Dulbecco's modified Eagle medium (DMEM) supplemented with 10% fetal bovine serum (FBS), penicillin, streptomycin and glutamax (Invitrogen) at 37° C. in a humidified incubator with 5% CO2 overnight. On Day 1, cells were washed with phosphate buffered saline (PBS), and then incubated for 72 hours in fresh serum-free DMEM supplemented with penicillin, streptomycin, and glutamax. On Day 4, cells were washed, followed by addition of fresh serum-free DMEM containing 10 ng/ml TGFβ, and cultured for 24 hours. On Day 5, cells were washed, followed by addition of fresh serum-free DMEM containing eIF4A inhibitor Cmp1 (0, 1.2, 3.7, 11.1, 33.3 or 100 nM), and cultured. Controls included untreated cells. At 48 hours post-addition of eIF4A inhibitor, 300 ul of culture media was harvested, centrifuged to pellet cellular debris, and frozen at −80° C. TGFβ1 in the culture medium was quantified using the Human TGF-B1 ELISA kit (R&D System DY240-05) according to the manufacturer's instructions. Procollagen type 1 C-Peptide (PIPC) levels were analyzed using the (PIP) EIA kit (Clontech, Cat. No. MK101) according to the manufacturer's instructions.

In experiment [5] the test system is myofibroblasts. The experiment in a line: Procollagen type 1 C-Peptide (PIPC) secretion from pre-formed myofibroblasts, (PIP) EIA kit. It counts as cell-based. The note with it: myofibroblasts pre-formed with 10 ng/ml TGFβ 24 hours, washed; inhibitor 0-100 nM for 48 hours; FIG. 3B. The procedure: as §4

`COc1nc(Cl)cc2c1[C@]1(O)[C@H](O)[C@H](CN(C)C)[C@@H](c3ccccc3)[C@]1(c1ccc(C#N)cc1)O2` [Cmp2, 4-((5aR,6S,7S,8R,8aS)-3-chloro-7-((dimethylamino)methyl)-8,8a-dihydroxy-1-methoxy-6-phenyl-6,7,8,8a-tetrahydro-5aH-cyclopenta[4,5]furo[3,2-c]pyridin-5a-yl)benzonitrile]: in experiment [1], the “α-SMA protein level (ratio of α-SMA to β-actin)” value is given as “dose-dependent reduction”. Further, the “procollagen type I secretion (PIPC)” value in experiment [2] is “blocked the increase”.
Turning to `COc1cc2c(c(OC)n1)[C@]1(O)[C@H](O)[C@H](CN(C)C)[C@@H](c3ccccc3)[C@]1(c1ccc(C#N)cc1)O2` (racemic) [Cmp1], the “α-SMA protein level (ratio of α-SMA to β-actin)” value in experiment [1] is “dose-dependent reduction”. Further, the “CD3+ T cells in the KPC-3 tumor samples” value in experiment [3] (0.3 mg/kg Q2D for 17 days) and in experiment [3] (1 mg/kg Q1W for 17 days) was “significant increase” in each case. Besides, the “CD8+ T cells in the KPC-3 tumor samples” value in experiment [3] (1 mg/kg Q1W for 17 days, FIG. 4C) is on record as “significant increase”. For the same compound, the “procollagen type I secretion (PIPC)” value in experiment [2] was “blocked the increase”. In the experiment with myofibroblasts [4], the “levels of secreted TGFβ” value is “reduced the levels of secreted TGFβ in a dose-dependent manner”. For the same compound, in the experiment with myofibroblasts [5], the “procollagen type I levels” value was “dose-dependent decrease”.
